Results on one molecule are retold here after patent publication US20260027083A1, “USE OF PPAR AGONIST FOR IMPROVEMENT OF ENERGY METABOLISM” (NOVMETAPHARMA CO., LTD., priority 2022, published 2026).

For one experiment, the target named is T1, PPARα (Homo sapiens, UniProt Q07869).
T1 construct: three types of pcDNA5-GAL4 and pGALRE-luc containing PPARα-LBD, PPARβ/δ-LBD, or PPARγ-LBD; GAL4 (fusion partner from vector pcDNA5-GAL4); expressed in transfected cells; host or cells: HEK293
T1 sequence (Q07869 239-466 limits assumed): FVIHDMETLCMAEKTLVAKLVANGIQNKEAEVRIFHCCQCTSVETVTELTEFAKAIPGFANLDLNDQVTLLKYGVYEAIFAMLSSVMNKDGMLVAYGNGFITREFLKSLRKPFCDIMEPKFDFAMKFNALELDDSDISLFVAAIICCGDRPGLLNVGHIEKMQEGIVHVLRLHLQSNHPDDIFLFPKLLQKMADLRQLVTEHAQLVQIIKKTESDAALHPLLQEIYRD
Put plainly: Gal4 trans-activated luciferase reporter assay, PPARα-LBD, HEK293. The following applies: HEK293, drug treatment 24 hours, FIG. 1. It is filed as cell-based. How it is done: (§1) A plasmid was transformed into E. coli (DE3, Rosetta) and transfected into HEK293 cells and used. Referring to known literatures such as Kanno, Y. & Inouye, Y. J Toxicol Sci 35, 515-525 (2010), Zhao, S. et al. J Nat Prod 79, 879-885 (2016), etc., luciferase assay was performed on three types of pcDNA5-GAL4 and pGALRE-luc containing PPARα-LBD, PPARβ/δ-LBD, or PPARγ-LBD. pProEX-PPAR and pET-28a were used for purification of His-tagged recombinant hPPAR-LBD protein.
(§2) A HEK293 cell line was cultured in Dulbecco's Modified Eagle Medium (DMEM) containing 10% Fetal Bovine Serum (FBS) and 1% penicillin-streptomycin (P/S). […]
(§3) Transfected HEK293 cells were treated with a drug and after 24 hours, the cells were collected, resuspended in a luciferase lysis buffer (Promega, Madison, Wisconsin, USA), and incubated on ice for 10 minutes. […] Next, Firefly Luciferase (Fluc) and Renilla Luciferase (Rluc) activities were measured using the Dual Luciferase Reporter Assay System (Promega, Madison, Wisconsin, USA). […]
(§4) To confirm whether a compound represented by Chemical Formula 1 was a PPAR agonist, Gal4 trans-activated luciferase assay was performed. Specifically, HEK293 cells were transfected with the Gal4-luciferase reporter systems of PPARα, PPARβ/δ, and PPARγ, respectively, harvested after drug treatment for 24 hours, and then analyzed by Dual-Luciferase assay. […]

The next experiment relates to 3T3-L1 adipocytes. The experiment is described as follows: 3T3-L1 adipocyte differentiation, Oil Red O staining. The following applies: treated together with rosiglitazone, each 25 μM. It is filed as cell-based, mouse. As for the experimental part:
A mouse preadipocyte 3T3-L1 cell line was cultured in DMEM containing 10% […] (CS) and 1% P/S. For differentiation of 3T3-L1, 10% FBS and 1% P/S were used. The cells were cultured in a 37° C. incubator humidified with 5% CO2 atmosphere.
3T3-L1 cells were seeded in a 12-well plate at a density of 5×10^4 cells/well. […] On day 2 of MDI addition, the medium was replaced with 1 μg/ml insulin.
After 2 days, the medium was replaced with DMEM containing 10% FBS and 1% P/S, and treated with a drug. The medium was replaced with fresh DMEM containing 10% FBS and 1% P/S, and treated with the drug three times every 2 days. Finally, the medium was replaced with DMEM containing only the drug in a serum-free state (serum starvation). After 2 days, differentiation of 3T3-L1 was completed.
After the differentiation of 3T3-L1 in the 12-well plate was completed, the cells were fixed with 4% paraformaldehyde and stained with an Oil Red O solution, and then the stained samples were photographed under a microscope (Nikon Eclipse Ti-s). An Oil Red O dye of the samples was dissolved in isopropanol, detected by a spectrophotometer at 492 nm, and the lipid droplet size distribution was measured using ImageJ. OCT-embedded liver samples were stained according to the Roy Ellis protocol. […]

A further experiment has as its target T2, PPARγ (Homo sapiens, UniProt P37231).
T2 construct: three types of pcDNA5-GAL4 and pGALRE-luc containing PPARα-LBD, PPARβ/δ-LBD, or PPARγ-LBD; GAL4 (fusion partner from vector pcDNA5-GAL4); expressed in transfected cells; host or cells: HEK293
T2 sequence (P37231 238-503 limits assumed): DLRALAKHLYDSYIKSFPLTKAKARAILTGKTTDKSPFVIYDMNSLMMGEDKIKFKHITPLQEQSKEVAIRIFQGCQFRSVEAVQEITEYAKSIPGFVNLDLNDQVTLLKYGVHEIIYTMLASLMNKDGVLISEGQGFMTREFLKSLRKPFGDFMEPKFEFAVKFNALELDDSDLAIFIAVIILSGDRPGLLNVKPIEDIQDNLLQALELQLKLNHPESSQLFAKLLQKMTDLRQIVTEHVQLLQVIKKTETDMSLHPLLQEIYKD
The experiment is described as follows: Gal4 trans-activated luciferase reporter assay, PPARγ-LBD, HEK293. It is filed as cell-based. To be noted: HEK293, drug treatment 24 hours, FIG. 1. How it is done: as §1, §2, §3, §4

As to `COc1ccc(-c2cc(=O)oc3c(C)c(OC(=O)[C@H](Cc4c[nH]c5ccccc45)NC(=O)OC(C)(C)C)ccc23)cc1` [Chemical Formula 1, [4-(4-methoxyphenyl)-8-methyl-2-oxochromen-7-yl] (2S)-3-(1H-indol-3-yl)-2-[(2-methylpropan-2-yl)oxycarbonylamino]propanoate], on PPARα, the “relative luciferase activity (Fluc to Rluc) for PPARα” value is listed as “dose-dependently increased”. In the experiment with 3T3-L1 adipocytes (FIG. 4 right), the “lipid droplet size distribution in adipocytes” value is reported as “effectively reduced”. In addition, in the experiment on 3T3-L1 adipocytes (FIGS. 3 and 4 left), the “lipid accumulation in adipocytes increased by rosiglitazone (Oil Red O)” value was “reduced”. In addition, at PPARγ, the “relative luciferase activity (Fluc to Rluc) for PPARγ” value is “dose-dependently increased”.
